Test results as given in patent publication US6500821B1, “4-amino-1-aryl-1,5-dihydropyrrol-2-ones and process for making” (Arzneimittelwerk Dresden GmbH, priority 1999, dated 2002).

What was measured:
maximal electroshock = experiment: Anticonvulsive action, maximal electroshock (MES), mouse i.p.; type: in vivo; conditions: for responders at 100 mg/kg / responders at 300 mg/kg: ip, read-out: Action, % of the protected animals
Method: (§1) Compounds according to the present invention were tested in vivo for their anticonvulsive action as shown in Table 1 in mice by i.p. administration, or in rats administered orally according to the internationally customary standard (Pharmac. Weekblad, Sc.Ed. 14 132 (1992) and Antiepileptic Drugs, Third Ed., Raven Press, New York 1989). [table]

s.c. pentetrazole = experiment: Anticonvulsive action, s.c. pentetrazole (PTZ), mouse i.p.; type: in vivo
Method: as §1

Vogel Conflict Test = experiment: Vogel Conflict Test; type: in vivo, rat; conditions: for Changed number of impulses to the control in % / dose from which an anxiolytic action was detected / equally effective dose: rat; for dose from which an anxiolytic action was detected / equally effective dose: p.o.
Excerpt: In this model, continuous access to drinking water is withheld from rats for a certain time. After this period, free access is given to drinking water, but is coupled with a mild electrical stimulation. The conflict for the animals is between accepting the electrical stimulation or going without a drink.
The reactions to a conflict situation of this type are similar to the secondary phenomena of anxiety in man. The resulting avoidance reactions can be suppressed by anxiolytic substances. As a measure of the anxiolytic action, the number of tolerated current pulses of the animals treated with the test substance is assessed in comparison to the vehicle-treated control group.

[1] = Octanol/water partition coefficient; type: physicochemical; conditions: for logP: read-out: log P (octanol/water partition coefficient)
[2] = ip, dose 100 mg/kg, read-out: Action, % of the protected animals
[3] = ip, dose 300 mg/kg, read-out: Action, % of the protected animals

SMILES	melting point	responders at 100 mg/kg (maximal electroshock; dose 100 mg/kg)	responders at 100 mg/kg (s.c. pentetrazole; [2])	logP [1]	responders at 300 mg/kg (maximal electroshock; dose 300 mg/kg)	also measured
NC(=O)N1c2ccccc2C=Cc2ccccc21 [Carbamazepin, reference compound]	–	–	–	–	–	Action, % of the protected animals (maximal electroshock; dose 100 mg/kg): 100%; Action, % of the protected animals (s.c. pentetrazole; dose 100 mg/kg): 0%
O=C1CN=C(c2ccccc2Cl)c2cc([N+](=O)[O-])ccc2N1 [Clonazepam, clonazepam]	–	–	–	–	–	Changed number of impulses to the control in % (Vogel Conflict Test; 0.1 mg/kg p.o.): 122%; Changed number of impulses to the control in % (Vogel Conflict Test; 0.3 mg/kg p.o.): 128%; Changed number of impulses to the control in % (Vogel Conflict Test; 1.0 mg/kg p.o.): 173%; dose from which an anxiolytic action was detected / equally effective dose (Vogel Conflict Test): 1 mg/kg
O=C1C=C(N2CCOCC2)CN1c1ccccc1Cl [Compound 1, 1-(2-chlorophenyl)-4-morpholin-4-yl-1,5-dihydropyrrol-2-one]	154 to 156 °C	0%	0%	–	–	dose from which an anxiolytic action was detected / equally effective dose (Vogel Conflict Test): 3 mg/kg
Cc1cccc(N2CC(N3CCOCC3)=CC2=O)c1 [Compound 2, 1-(3-methylphenyl)-4-morpholin-4-yl-1,5-dihydropyrrol-2-one]	–	33%	–	1.46	–	responders at 300 mg/kg (s.c. pentetrazole; [3]): 100%
O=C1C=C(N2CCOCC2)CN1c1ccc(F)cc1 [Compound 3, 1-(4-fluorophenyl)-4-morpholin-4-yl-1,5-dihydropyrrol-2-one]	226 to 229 °C	50%	33%	–	–	–
O=C1C=C(N2CCOCC2)CN1c1ccc(Br)cc1 [Compound 5, 1-(4-bromophenyl)-4-morpholin-4-yl-1,5-dihydropyrrol-2-one]	230 to 233 °C	33%	100%	2.16	–	–
Cc1ccc(N2CC(N3CCOCC3)=CC2=O)cc1 [Compound 6, 1-(4-methylphenyl)-4-morpholin-4-yl-1,5-dihydropyrrol-2-one]	–	–	100%	1.42	100%	–
COc1ccc(N2CC(N3CCOCC3)=CC2=O)cc1 [Compound 7, 1-(4-methoxyphenyl)-4-morpholin-4-yl-1,5-dihydropyrrol-2-one]	198 to 202 °C	–	–	0.74	0%	responders at 300 mg/kg (s.c. pentetrazole; [3]): 80%
O=C1C=C(N2CCOCC2)CN1c1ccc(C(F)(F)F)cc1 [Compound 8, 4-morpholin-4-yl-1-(4-trifluoromethylphenyl)-1,5-dihydropyrrol-2-one]	205 to 207 °C	66%	100%	–	–	–
O=C1C=C(N2CCOCC2)CN1c1ccc(OC(F)(F)F)cc1 [Compound 9, 4-morpholin-4-yl-1-(4-trifluoromethoxyphenyl)-1,5-dihydropyrrol-2-one]	148 to 153 °C	100%	–	2.45	–	responders at 10 mg/kg (s.c. pentetrazole; ip, dose 10 mg/kg, read-out: Action, % of the protected animals): 50%
O=C1C=C(N2CCOCC2)CN1c1ccc(F)c(Cl)c1 [Compound 10, 1-(3-chloro-4-fluorophenyl)-4-morpholin-4-yl-1,5-dihydropyrrol-2-one]	162 to 166 °C	100%	100%	2.19	–	–
COc1cc(N2CC(N3CCOCC3)=CC2=O)cc(OC)c1OC [Compound 11, 4-morpholin-4-yl-1-(3,4,5-trimethoxyphenyl)-1,5-dihydropyrrol-2-one]	179 to 182 °C	–	–	–	0%	responders at 300 mg/kg (s.c. pentetrazole; [3]): 66%
Cc1cccc(N2CC(N3CCCCC3)=CC2=O)c1 [Compound 12, 1-(3-methylphenyl)-4-piperidin-1-yl-1,5-dihydropyrrol-2-one]	117 to 123 °C	–	–	2.66	0%	responders at 300 mg/kg (s.c. pentetrazole; [3]): 0%
O=C1C=C(N2CCCCC2)CN1c1ccc(F)cc1 [Compound 13, 1-(4-fluorophenyl)-4-piperidin-1-yl-1,5-dihydropyrrol-2-one]	214 to 216 °C	–	–	2.35	0%	responders at 300 mg/kg (s.c. pentetrazole; [3]): 0%
O=C1C=C(N2CCCCC2)CN1c1ccc(Cl)cc1 [Compound 14, 1-(4-chlorophenyl)-4-piperidin-1-yl-1,5-dihydropyrrol-2-one]	–	100%	100%	3.06	–	–
Cc1ccc(N2CC(N3CCCCC3)=CC2=O)cc1 [Compound 15, 1-(4-methylphenyl)-4-piperidin-1-yl-1,5-dihydropyrrol-2-one]	174 to 177 °C	100%	100%	2.62	–	–
O=C1C=C(N2CCCCC2)CN1c1ccc(F)c(Cl)c1 [Compound 16, 1-(3-chloro-4-fluorophenyl)-4-piperidin-1-yl-1,5-dihydropyrrol-2-one]	195 to 196 °C	–	–	–	100%	responders at 300 mg/kg (s.c. pentetrazole; [3]): 0%
CC1CCN(C2=CC(=O)N(c3ccc(Cl)cc3)C2)CC1 [Compound 18, 1-(4-chlorophenyl)-4-(4-methylpiperidin-1-yl)-1,5-dihydropyrrol-2-one]	194 to 196 °C	66%	66%	–	–	–
CC1CCCCN1C1=CC(=O)N(c2ccc(Cl)cc2)C1 (stereo not drawn) [Compound 20, 1-(4-chlorophenyl)-4-(2-methylpiperidin-1-yl)-1,5-dihydropyrrol-2-one]	181 to 185 °C	–	40%	–	66%	–
CN1CCN(C2=CC(=O)N(c3ccc(Cl)cc3)C2)CC1 [Compound 21, 1-(4-chlorophenyl)-4-(4-methylpiperazin-1-yl)-1,5-dihydropyrrol-2-one]	194 to 197 °C	66%	100%	–	–	–
O=C1C=C(N2CCCCCC2)CN1c1ccc(Cl)cc1 [Compound 22, 1-(4-chlorophenyl)-4-azepam-1-yl-1,5-dihydropyrrol-2-one]	–	–	–	–	–	Action, % of the protected animals (maximal electroshock; dose 300 mg/kg): 100%; log P (octanol/water partition coefficient) [1]: 3.40; Action, % of the protected animals (s.c. pentetrazole; dose 300 mg/kg): 100%
CCN(CC)C1=CC(=O)N(c2ccc(Cl)cc2)C1 [Compound 23, 1-(4-chlorophenyl)-4-(diethylamino)-1,5-dihydropyrrol-2-one]	165 to 168 °C	–	–	–	50%	responders at 300 mg/kg (s.c. pentetrazole; [3]): 66%
COCCN(CCOC)C1=CC(=O)N(c2ccc(Cl)cc2)C1 [Compound 24, 1-(4-chlorophenyl)-4-(bis(methoxyethyl)amino)-1,5-dihydropyrrol-2-one]	189 to 195 °C	–	–	–	33%	responders at 300 mg/kg (s.c. pentetrazole; [3]): 66%
O=C1C=C(N2CCOCC2)CN1c1ccccc1 [Compound 25, 4-morpholin-4-yl-1-phenyl-1,5-dihydropyrrol-2-one]	161 to 164 °C	40%	66%	–	–	–
CN1C(=O)CN=C(c2ccccc2)c2cc(Cl)ccc21 [Diazepam, diazepam]	–	–	–	–	–	Changed number of impulses to the control in % (Vogel Conflict Test; 0.1 mg/kg p.o.): 94%; Changed number of impulses to the control in % (Vogel Conflict Test; 0.3 mg/kg p.o.): 114%; Changed number of impulses to the control in % (Vogel Conflict Test; 1.0 mg/kg p.o.): 148%; Changed number of impulses to the control in % (Vogel Conflict Test; 3 mg/kg p.o.): 167%
CN1CCN=C(c2ccccc2)c2cc(Cl)ccc21 [Medazepam, medazepam]	–	–	–	–	–	anxiolytic action (in words) (Vogel Conflict Test; dose range from 0.3 to 3 mg/kg p.o.): not possible to detect; Changed number of impulses to the control in % (Vogel Conflict Test; 0.3 mg/kg p.o.): 100%; Changed number of impulses to the control in % (Vogel Conflict Test; 1.0 mg/kg p.o.): 131%; Changed number of impulses to the control in % (Vogel Conflict Test; 3 mg/kg p.o.): 78%
CCCC(CCC)C(=O)O [Valproate, reference compound]	–	0%	30%	–	–	–
